Measured values: publication PMC5491903, “The Selective Phosphoinoside-3-Kinase p110δ Inhibitor IPI-3063 Potently Suppresses B Cell Survival, Proliferation, and Differentiation” (Frontiers in Immunology, 2017)

What was measured:
Format in all cases: cell-based
mouse primary B cells = experiment: mouse B cell antibody class switching to IgG1; details: αCD40 + IL-4, 96 h
Text: Studies with p110δ inhibitors have shown that low PI3K signaling in B cells promotes antibody class switch recombination (CSR) and decreases differentiation into plasmablasts that secrete low-affinity IgM ([18], [19]). Activation of mouse primary B cells with αCD40 + IL-4 or LPS + IL-4 both induce IgG1 class switching while treatment with LPS alone induces the plasmablast differentiation fate (Figure 5A). In B cells stimulated with αCD40 + IL-4, IPI-3063 increased the percentage of B220^+ cells switching to IgG1 starting at 1 nM and approached the effect of GDC-0941 (Figure 5B).
Figure 5 IPI-3063 potently […] mouse B cell antibody switching and inhibits plasmablast differentiation. Purified B cells were pretreated with inhibitors, then stimulated with αCD40 + IL-4 (B) or LPS + IL-4 (C) for 96 h to induce switching to IgG1 or LPS (D) for 72 h to induce plasmablast differentiation. Class switching to IgG1 was measured by the 7AAD^−CFSE^loB220^+IgG1^+ cells [(A), upper panels]. Plasmablast percentages were calculated by % 7AAD^−CFSE^loCD138^+B220^lo population [(A), lower]. Supernatant was harvested (E) for IgM ELISA. […]
(§1) Mouse splenic B cells were purified by negative selection (eBioscience Magnisort Mouse B cell enrichment kit). B-cell purity was >95% as measured by FACS analysis (FACSCalibur and CellQuest software; BD Biosciences) using anti-B220 antibody (BioLegend). […]

[1] = test system: LPS-stimulated mouse B cells; experiment: mouse plasmablast differentiation (CD138+B220lo); details: 72 h
Procedure: Figure 5 IPI-3063 potently […] mouse B cell antibody switching and inhibits plasmablast differentiation. Purified B cells were pretreated with inhibitors, then stimulated with αCD40 + IL-4 (B) or LPS + IL-4 (C) for 96 h to induce switching to IgG1 or LPS (D) for 72 h to induce plasmablast differentiation. Class switching to IgG1 was measured by the 7AAD^−CFSE^loB220^+IgG1^+ cells [(A), upper panels]. Plasmablast percentages were calculated by % 7AAD^−CFSE^loCD138^+B220^lo population [(A), lower]. Supernatant was harvested (E) for IgM ELISA. Concentrations used were 1 nM, 10 nM, 100 nM, 1 µM for IPI-443 and 1, 10, 30, 100 nM for IPI-3063. Low concentrations of IPI-3063 were 0.01 and 0.1 nM (D). AS252424 concentrations were 100 nM, 300 nM, and 1 µM, and GDC-0941 was at 500 nM. Samples were collected by time (*P < 0.05, **P < 0.001, ***P < 0.0001 one-way ANOVA with Newman–Keuls multiple comparison test). […]
We also evaluated plasmablast differentiation and IgM secretion in LPS-stimulated cells (Figure 5D). […]
as §1

[2] = test system: phosphorylation of AKT at serine 473 in mouse primary B cells; experiment: p-AKT (S473) western blot in αIgM + IL-4 stimulated mouse B cells
Procedure: (§2) IPI-3063 is a p110δ selective compound with an IC50 = 0.1 nM in p110δ-specific cell-based assays and cellular IC50 values for the other class I PI3K isoforms are at least 1,000-fold higher (Table 2) ([11]). […] To test the effects of p110γ inhibition, we used AS-252424 compound with a biochemical IC50 = 30 nM for p110γ ([17]). We assessed the effects of both IPI-3063 and IPI-443 on PI3K activity in mouse primary B cells stimulated with αIgM + IL-4, by evaluating phosphorylation of AKT at the serine 473 residue (Figures 1A,C) as well as the phosphorylation of ERK1/2 on Thr202/Tyr204 residues (Figures 1B,C). Cells were treated with a pan-PI3K inhibitor GDC-0941 or with various concentrations of IPI-3063 or IPI-443, or DMSO (0.1%) as the diluent control. Separate cultures were treated with the p110γ inhibitor AS-252424 or its diluent control (0.1% EtOH). MK-2206, an AKT inhibitor, which also reduces AKT S473 phosphorylation, was also used as a control to show ERK1/2 phosphorylation is independent of AKT activity. […]
(§3) Analysis was performed on western blots using ImageJ to measure mean fluorescence intensities of each band. Phospho-AKT S473 and phospho-ERK1/2 signal was normalized with actin measurements and fold change was calculated using the stimulated/no drug control.

[3] = test system: phosphorylation of ERK1/2 on Thr202/Tyr204 in mouse primary B cells; experiment: p-ERK1/2 western blot in αIgM + IL-4 stimulated mouse B cells
Procedure: as §2, §3

Row | Compound | effect on IgG1 switching (mouse primary B cells) | effect on plasmablast differentiation [1] | effect on p-AKT signaling ([2]; αIgM + IL-4, 100 nM, 300 nM, 1 µM) | effect on p-ERK1/2 ([3]; αIgM + IL-4) | concentration that increases percentage of B220+ cells switching to IgG1 (mouse primary B cells) [nM] | concentration that decreases plasmablast differentiation ([1]; % CD138+B220lo) [nM] | concentration with significant reduction of p-AKT ([2]; αIgM + IL-4, 30 min pretreatment, 1 h stimulation) [nM] | concentration with significant reduction of p-ERK1/2 ([3]; αIgM + IL-4, 1 h stimulation) [nM]
1 | O=C1NC(=O)/C(=C/c2ccc(-c3ccc(F)cc3O)o2)S1 [AS-252424, reference compound] | no effect | no significant effect | no significant effect | no significant effect | – | – | – | –
2 | CC(C)n1c([C@H](C)Nc2ncnc(N)c2C#N)cc2cccc(-c3ccc(=O)n(C)c3)c2c1=O [IPI-3063] | – | – | – | – | ≥ 1 | ≥ 1 | 1 | 10
